Counter-ions that a name gives are not always drawn.

The target in the assay is Arachidonate 5-lipoxygenase (Rattus norvegicus). Kind of assay: Evaluated for inhibitory activity against RBL-1 cell 5-lipoxygenase in rat.
The term IC50 denotes the concentration at which inhibition is half-maximal. Low readings indicate greater potency, high ones weaker potency. `Cc1cc(OCCN2CCN(C(c3ccccc3)c3ccccc3)CC2)c(C)c(C)c1O` [4-[2-(4-Benzhydryl-piperazin-1-yl)-ethoxy]-2,3,6-trimethyl-phenol; hydrochloride] gave an IC50 of 820 nM.
The compound `Cc1cc(OCCCCN2CCN(C(c3ccccc3)c3ccccc3)CC2)c(C)c(C)c1O` [4-[4-(4-Benzhydryl-piperazin-1-yl)-butoxy]-2,3,6-trimethyl-phenol; hydrochloride] displayed a half-inhibitory concentration (IC50) of 358 nM.
Consider `Cc1cc(OCCCCCCCCN2CCN(C(c3ccccc3)c3ccccc3)CC2)c(C)c(C)c1O` [4-[8-(4-Benzhydryl-piperazin-1-yl)-octyloxy]-2,3,6-trimethyl-phenol; hydrochloride], for which half-maximal inhibition (IC50) was put at 1060 nM.
The same measure for `Cc1cc(OCCCN2CCN(C(c3ccccc3)c3ccccc3)CC2)c(C)c(C)c1O` [4-[3-(4-Benzhydryl-piperazin-1-yl)-propoxy]-2,3,6-trimethyl-phenol; hydrochloride]: 426 nM.

These data come from BindingDB's records for doi:10.1016/s0960-894x(98)00676-3 (Tokushima Bunri University, 1999).
